The experiment deals with T1, CDK4/cyclin D3 (Homo sapiens, UniProt P11802).
T1 construct: made in house; host or cells: insect cells (baculovirus co-infection)
Kind of experiment: Inhibition of CDK4/Cyclin D retinoblastoma kinase activity.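 On % Inhib CDK4/D @ 1 μM: relative to DMSO control wells without compound minus no-enzyme background.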 Format: biochemical. The settings on record: for inhibition at 0.1 µM / % Inhib CDK4/D @ 0.1 μM: test compound at 0.1 μM; for inhibition at 0.1 µM: read-out: % Inhib CDK4/D @ 0.1 μM; for inhibition at 1 µM / % Inhib CDK4/D @ 1 μM: test compound at 1 μM (head line shifted: 'mM' printed beside 'Structure'); for inhibition at 1 µM: read-out: % Inhib CDK4/D @ 1 μM; for inhibition at 0.03 µM / % Inhib CDK4/D @ 0.03: test compound at 0.03 (unit cell empty, head line shifted; μM); for inhibition at 0.03 µM: read-out: % Inhib CDK4/D @ 0.03. In a few lines:
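Human CDK4 with truncated cyclin D3 (1-264) from baculovirus-infected insect cells, 5 nM, phosphorylating His-tagged Rb fragment (386-928) with 25 μM [32P/33P]ATP in pH 7.4 HEPES/MgCl2, 2% DMSO, 30° C., 20 min (60 min for tight binders). Filter capture, phosphorimager; apparent Ki from competitive or tight-binding competitive fits.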

The text below walks through data of patent US20040176431A1, “Antiproliferative 2-(sulfo-phenyl)-aminothiazole derivatives and pharmaceutical compositions, and methods for their use” (Pfizer, Inc., priority 2003, published 2004).

T1 sequence (P11802 whole entry): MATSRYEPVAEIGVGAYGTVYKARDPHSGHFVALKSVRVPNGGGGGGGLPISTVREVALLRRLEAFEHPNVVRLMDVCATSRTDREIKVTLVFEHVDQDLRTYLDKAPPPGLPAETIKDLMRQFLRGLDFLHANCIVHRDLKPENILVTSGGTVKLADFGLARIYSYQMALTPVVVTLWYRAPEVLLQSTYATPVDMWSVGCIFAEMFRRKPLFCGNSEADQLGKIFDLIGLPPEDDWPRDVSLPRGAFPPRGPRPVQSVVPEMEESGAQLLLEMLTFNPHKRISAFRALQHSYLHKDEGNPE
T1 sequence (P30281 1-264 partner limits assumed): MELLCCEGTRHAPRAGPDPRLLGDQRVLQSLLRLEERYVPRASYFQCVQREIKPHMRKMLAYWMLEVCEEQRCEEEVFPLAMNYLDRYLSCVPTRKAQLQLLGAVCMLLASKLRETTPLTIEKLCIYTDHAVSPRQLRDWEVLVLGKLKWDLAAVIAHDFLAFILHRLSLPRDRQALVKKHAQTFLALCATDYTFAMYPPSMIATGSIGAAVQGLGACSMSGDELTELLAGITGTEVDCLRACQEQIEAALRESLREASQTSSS

With `CN1CCCC(CSc2cccc(Nc3nc(N)c(C(=O)c4c(Cl)cccc4Cl)s3)c2)C1` (stereo not drawn) [DD(67)], the inhibition at 0.1 µM is 14%, the inhibition at 1 µM was 49.1% and the inhibition at 0.03 µM is 4.3%.

Regarding `COCC[S+]([O-])c1cccc(Nc2nc(N)c(C(=O)c3c(Cl)cccc3Cl)s2)c1` (stereo not drawn) [DD(134)], the inhibition at 0.1 µM came out at 48%, the inhibition at 1 µM was found to be 49.9% and the inhibition at 0.03 µM amounted to 8.4%.

For the molecule `COC(=O)/C=C/CSc1ccc(Nc2nc(N)c(C(=O)c3c(Cl)cccc3Cl)s2)cc1` [DD(4)], the inhibition at 0.1 µM came to 11%, the inhibition at 1 µM worked out at 49.1% and the inhibition at 0.03 µM turned out to be 5.4%.

`CN1CCCC1CCSc1ccc(Nc2nc(N)c(C(=O)c3c(Cl)cccc3Cl)s2)cc1` (stereo not drawn) [DD(19)]: the inhibition at 0.1 µM came to 19%, the inhibition at 1 µM amounted to 82.9% and the inhibition at 0.03 µM is -3%.

Turning to `CCN(CC)C(=O)C[S+]([O-])c1ccc(Nc2nc(N)c(C(=O)c3c(Cl)cccc3Cl)s2)cc1` (stereo not drawn) [DD(81)], the inhibition at 0.1 µM is 21%, the inhibition at 1 µM was determined as 57.4% and the inhibition at 0.03 µM was -21%.

As to `Nc1nc(Nc2ccc(S(=O)(=O)CC3CNC(=O)O3)cc2)sc1C(=O)c1c(Cl)cccc1Cl` (stereo not drawn) [DD(209)], the “% Inhib CDK4/D @ 0.1 μM” value amounted to 8%, the “% Inhib CDK4/D @ 1 μM” value is reported as −21% and the “% Inhib CDK4/D @ 0.03” value was −10%.

Regarding `CC(C)(CO)CSc1cccc(Nc2nc(N)c(C(=O)c3c(Cl)cccc3Cl)s2)c1` [DD(80)], the inhibition at 0.1 µM amounted to 1.5%, the inhibition at 1 µM was found to be 56% and the inhibition at 0.03 µM turned out to be 1.2%.

Regarding `Nc1nc(Nc2ccc(SCC3CCCO3)cc2)sc1C(=O)c1c(Cl)cccc1Cl` (stereo not drawn) [DD(18)], the inhibition at 0.1 µM stood at 9.9%, the inhibition at 1 µM is 70.6% and the inhibition at 0.03 µM was 10%.

For the molecule `CN(C)CCCSc1cccc(Nc2nc(N)c(C(=O)c3c(Cl)cccc3Cl)s2)c1` [DD(50)], the inhibition at 0.1 µM was 10%, the inhibition at 1 µM stood at 80.3% and the inhibition at 0.03 µM was 24%.

Regarding `CC(C)CCOC(=O)C[S+]([O-])c1ccc(Nc2nc(N)c(C(=O)c3c(Cl)cccc3Cl)s2)cc1` (stereo not drawn) [DD(111)], the inhibition at 0.1 µM was 32%, the inhibition at 1 µM came out at 64.8% and the inhibition at 0.03 µM was -1.7%.

As for `Nc1nc(Nc2ccc(S(=O)(=O)CC(=O)Nc3ccccc3)cc2)sc1C(=O)c1c(Cl)cccc1Cl` [DD(175)], the inhibition at 0.1 µM was determined as 23%, the “% Inhib CDK4/D @ 1 μM” value is given as 12.4% and the “% Inhib CDK4/D @ 0.03” value is on record as −14%.

With `CC1(CSc2ccc(Nc3nc(N)c(C(=O)c4c(Cl)cccc4Cl)s3)cc2)CO1` (stereo not drawn) [DD(20)], the inhibition at 0.1 µM is 6.8%, the inhibition at 1 µM turned out to be 68.2% and the inhibition at 0.03 µM is 4.2%.

On to `Nc1nc(Nc2ccc(SCC(=O)Nc3ccccc3)cc2)sc1C(=O)c1c(Cl)cccc1Cl` [DD(15)], for which the inhibition at 0.1 µM worked out at 53%, the inhibition at 1 µM turned out to be 82% and the inhibition at 0.03 µM was 38%.

Turning to `NC(=O)CCSc1ccc(Nc2nc(N)c(C(=O)c3c(Cl)cccc3Cl)s2)cc1` [DD(29)], the “% Inhib CDK4/D @ 0.1 μM” value is on record as 50%, the “% Inhib CDK4/D @ 1 μM” value stood at 87.2% and the “% Inhib CDK4/D @ 0.03” value is recorded as 24%.

As for `Nc1nc(Nc2ccc(S(=O)(=O)CC(=O)Nc3ccccc3)cc2)sc1C(=O)c1c(Cl)cccc1Cl` [DD(215)], the “% Inhib CDK4/D @ 0.1 μM” value is given as 25%, the “% Inhib CDK4/D @ 1 μM” value is on record as 4.9% and the “% Inhib CDK4/D @ 0.03” value is recorded as −15%.

Turning to `Nc1nc(Nc2cccc([S+]([O-])CC(=O)Nc3ccccc3)c2)sc1C(=O)c1c(Cl)cccc1Cl` (stereo not drawn) [DD(135)], the inhibition at 0.1 µM was found to be 42%, the inhibition at 1 µM came to 51.9% and the inhibition at 0.03 µM was found to be 16%.

For `Nc1nc(Nc2cccc([S+]([O-])CCN3CCCCC3)c2)sc1C(=O)c1c(Cl)cccc1Cl` (stereo not drawn) [DD(131)], the inhibition at 0.1 µM worked out at 32%, the inhibition at 1 µM was determined as 57% and the inhibition at 0.03 µM came to 13%.

Turning to `Nc1nc(Nc2ccc(SCc3ncon3)cc2)sc1C(=O)c1c(Cl)cccc1Cl` [DD(8)], the inhibition at 0.1 µM was determined as 43%, the inhibition at 1 µM came to 82.1% and the inhibition at 0.03 µM amounted to 16%.

In the case of `CC(C)CCOC(=O)CSc1cccc(Nc2nc(N)c(C(=O)c3c(Cl)cccc3Cl)s2)c1` [DD(71)], the inhibition at 0.1 µM is 6.9%, the inhibition at 1 µM came to 36% and the inhibition at 0.03 µM was found to be 77%.

With `NC(=O)CSc1cccc(Nc2nc(N)c(C(=O)c3c(Cl)cccc3Cl)s2)c1` [DD(61)], the inhibition at 0.1 µM amounted to 57%, the inhibition at 1 µM stood at 81.5% and the inhibition at 0.03 µM stood at 20%.

On to `COc1cccc(CSc2ccc(Nc3nc(N)c(C(=O)c4c(Cl)cccc4Cl)s3)cc2)c1` [DD(17)], for which the inhibition at 0.1 µM is -3%, the inhibition at 1 µM came to 28.3% and the inhibition at 0.03 µM was -9.5%.

In the case of `Nc1nc(Nc2ccc(S(=O)(=O)CCCO)cc2)sc1C(=O)c1c(Cl)cccc1Cl` [DD(205)], the “% Inhib CDK4/D @ 0.1 μM” value came to 43%, the “% Inhib CDK4/D @ 1 μM” value turned out to be 56.4% and the “% Inhib CDK4/D @ 0.03” value is given as −4.1%.

Consider `Nc1nc(Nc2ccc([S+]([O-])Cc3ccncc3)cc2)sc1C(=O)c1c(Cl)cccc1Cl` (stereo not drawn) [DD(115)], for which the inhibition at 0.1 µM amounted to 45%, the inhibition at 1 µM turned out to be 68.5% and the inhibition at 0.03 µM was 6.3%.

For `CC(CSc1cccc(Nc2nc(N)c(C(=O)c3c(Cl)cccc3Cl)s2)c1)CN(C)C` (stereo not drawn) [DD(43)], the inhibition at 0.1 µM amounted to 16%, the inhibition at 1 µM stood at 71.3% and the inhibition at 0.03 µM came to 25%.

On to `CCN(CC)C(=O)CS(=O)(=O)c1ccc(Nc2nc(N)c(C(=O)c3c(Cl)cccc3Cl)s2)cc1` [DD(201)], for which the “% Inhib CDK4/D @ 0.1 μM” value is 36%, the “% Inhib CDK4/D @ 1 μM” value was found to be 10.3% and the “% Inhib CDK4/D @ 0.03” value is reported as 3.5%.

Consider `NC(=O)CC[S+]([O-])c1cccc(Nc2nc(N)c(C(=O)c3c(Cl)cccc3Cl)s2)c1` (stereo not drawn) [DD(148)], for which the inhibition at 0.1 µM turned out to be 53%, the inhibition at 1 µM was determined as 65.5% and the inhibition at 0.03 µM was 35%.

Turning to `Nc1nc(Nc2ccc(S(=O)(=O)Cc3ncon3)cc2)sc1C(=O)c1c(Cl)cccc1Cl` [DD(208)], the “% Inhib CDK4/D @ 0.1 μM” value came to 36%, the “% Inhib CDK4/D @ 1 μM” value was found to be 47.8% and the “% Inhib CDK4/D @ 0.03” value turned out to be 0.2%.

Take `Nc1nc(Nc2ccc(SCC3CO3)cc2)sc1C(=O)c1c(Cl)cccc1Cl` (stereo not drawn) [DD(12)]: the inhibition at 0.1 µM stood at 19%, the inhibition at 1 µM turned out to be 72% and the inhibition at 0.03 µM was 3.9%.

As to `Nc1nc(Nc2cccc(SCCCO)c2)sc1C(=O)c1c(Cl)cccc1Cl` [DD(45)], the inhibition at 0.1 µM stood at 54%, the inhibition at 1 µM was found to be 79.6% and the inhibition at 0.03 µM was 32%.

For `CCOCC[S+]([O-])c1cccc(Nc2nc(N)c(C(=O)c3c(Cl)cccc3Cl)s2)c1` (stereo not drawn) [DD(153)], the inhibition at 0.1 µM turned out to be 44%, the inhibition at 1 µM was determined as 51.8% and the inhibition at 0.03 µM was found to be 15%.

As for `CC(C)CCOC(=O)CS(=O)(=O)c1ccc(Nc2nc(N)c(C(=O)c3c(Cl)cccc3Cl)s2)cc1` [DD(193)], the “% Inhib CDK4/D @ 0.1 μM” value is 31%, the “% Inhib CDK4/D @ 1 μM” value turned out to be 61.1% and the “% Inhib CDK4/D @ 0.03” value was −2.9%.

For `COCCS(=O)(=O)c1ccc(Nc2nc(N)c(C(=O)c3c(Cl)cccc3Cl)s2)cc1` [DD(214)], the “% Inhib CDK4/D @ 0.1 μM” value is given as 29%, the “% Inhib CDK4/D @ 1 μM” value was 60.6% and the “% Inhib CDK4/D @ 0.03” value is recorded as −10%.

In the case of `Nc1nc(Nc2ccc(S(=O)(=O)CC3CC3)cc2)sc1C(=O)c1c(Cl)cccc1Cl` [DD(216)], the “% Inhib CDK4/D @ 0.1 μM” value was found to be 20%, the “% Inhib CDK4/D @ 1 μM” value is 47.1% and the “% Inhib CDK4/D @ 0.03” value was 12%.

As to `CC(C)OC(=O)CS(=O)(=O)c1ccc(Nc2nc(N)c(C(=O)c3c(Cl)cccc3Cl)s2)cc1` [DD(223)], the “% Inhib CDK4/D @ 0.1 μM” value is given as 35%, the “% Inhib CDK4/D @ 1 μM” value is 11.7% and the “% Inhib CDK4/D @ 0.03” value is −11%.

On to `CC(C)CCS(=O)(=O)c1ccc(Nc2nc(N)c(C(=O)c3c(Cl)cccc3Cl)s2)cc1` [DD(213)], for which the “% Inhib CDK4/D @ 0.1 μM” value was found to be 14%, the “% Inhib CDK4/D @ 1 μM” value is −11% and the “% Inhib CDK4/D @ 0.03” value is given as −22%.

For the molecule `CC(C)CCC[S+]([O-])c1cccc(Nc2nc(N)c(C(=O)c3c(Cl)cccc3Cl)s2)c1` (stereo not drawn) [DD(150)], the inhibition at 0.1 µM worked out at 21%, the inhibition at 1 µM amounted to 10.4% and the inhibition at 0.03 µM amounted to 5.6%.

In the case of `CN1CCCC(CS(=O)(=O)c2ccc(Nc3nc(N)c(C(=O)c4c(Cl)cccc4Cl)s3)cc2)C1` (stereo not drawn) [DD(227)], the “% Inhib CDK4/D @ 0.1 μM” value came to 16%, the “% Inhib CDK4/D @ 1 μM” value was 15.2% and the “% Inhib CDK4/D @ 0.03” value was −12%.

Take `CC(CN(C)C)C[S+]([O-])c1ccc(Nc2nc(N)c(C(=O)c3c(Cl)cccc3Cl)s2)cc1` (stereo not drawn) [DD(83)]: the inhibition at 0.1 µM was determined as 31%, the inhibition at 1 µM is 43% and the inhibition at 0.03 µM was -17%.

Turning to `CC(C)=CCSc1ccc(Nc2nc(N)c(C(=O)c3c(Cl)cccc3Cl)s2)cc1` [DD(24)], the inhibition at 0.1 µM is -3%, the inhibition at 1 µM was 42.5% and the inhibition at 0.03 µM was -17%.

As for `CN1CCCC1CC[S+]([O-])c1ccc(Nc2nc(N)c(C(=O)c3c(Cl)cccc3Cl)s2)cc1` (stereo not drawn) [DD(99)], the inhibition at 0.1 µM came out at 34%, the inhibition at 1 µM amounted to 77.1% and the inhibition at 0.03 µM is -5.6%.
